Experiments:
[1] = Sensory evaluation in Japanese noodle soup base solution with potassium chloride (0.1 g) (Experimental Example 4); conditions: for off-taste suppressing effect: Japanese noodle soup base solution, potassium chloride 0.1 g; for intensity of off-tastes (bitter taste, metallic taste, harsh taste, astringent taste) derived from potassium chloride: base solution of Table 18
Procedure: Potassium chloride (0.1 g) was added to a commercially available Japanese noodle soup base (manufactured by Yamaki Co., Ltd.) (11.1 g), and dissolved by adding hot water ([…]) to prepare a base solution.
Each compound shown in the following Table 18 was added to the base solution prepared above so as to achieve the concentration (addition concentration) shown in the following Table 18 to prepare each evaluation sample.
(§1) Based on the following evaluation criteria, a panel of two experts determined by consensus the intensity of off-tastes (bitter taste, metallic taste, harsh taste, astringent taste) derived from potassium chloride in each evaluation sample, by reference to each potassium chloride aqueous solution adjusted to 0.1 wt % or 0.05 wt %.

[2] = Sensory evaluation in chicken broth solution with potassium chloride (Experimental Example 3); conditions: chicken broth solution with 0.8 wt % potassium chloride
Procedure: (§2) As shown in the following (1) to (3) below, 0.8 wt % of potassium chloride was added to a food base powder corresponding to 0.5 wt % of sodium chloride to prepare each base solution having an off-taste derived from potassium chloride.
Potassium chloride (0.8 g) was added to a commercially available powdered chicken broth mix (manufactured by Ajinomoto Co., Inc., trade name “Marutorigara Soup”) (1.0 g), hot water (98.2 g) was added to dissolve the mixture to prepare a base solution (chicken broth soup solution).
(§3) Each compound shown in the following Tables 15 to 17 was added to each base solution (ramen noodle soup solution, chicken broth solution, potage solution) so as to achieve the concentration (addition concentration) shown in the following Tables 15 to 17 to prepare each evaluation sample.
(§4) By a method similar to that in Experimental Example 1, a panel of two experts determined the intensity of off-tastes (bitter taste, metallic taste, harsh taste, astringent taste) derived from potassium chloride in each evaluation sample.

[3] = Sensory evaluation in potage solution with potassium chloride (Experimental Example 3); conditions: Potage solution with 0.8 wt % potassium chloride
Procedure: as §2
Potassium chloride (0.8 g) was added to a commercially available powdered instant potage (manufactured by Ajinomoto Co., Inc., trade name “Knorr (registered trade mark) Cup Soup Potage”) (7.1 g), hot water (92.1 g) was added to dissolve the mixture to prepare a base solution (potage solution).
as §3, §4

[4] = Sensory evaluation in Japanese noodle soup base solution with potassium chloride (0.2 g) (Experimental Example 5); conditions: for off-taste suppressing effect: Japanese noodle soup base solution, potassium chloride 0.2 g; for intensity of off-tastes (bitter taste, metallic taste, harsh taste, astringent taste) derived from potassium chloride: base solution of Table 19
Procedure: Potassium chloride (0.2 g) was added to a commercially available Japanese noodle soup base (manufactured by Yamaki Co., Ltd.) (11.1 g), and dissolved by adding hot water (88.7 g) to prepare a base solution.
Each compound shown in the following Table 19 was added to the base solution prepared above so as to achieve the concentration (addition concentration) shown in the following Table 19 to prepare each evaluation sample.
as §1, with “0.2 wt %, 0.15” for “0.1”, “0.1” for “0.05”

[5] = addition concentration 1000 weight ppb (1000 weight ppm with respect to potassium chloride)
[6] = addition concentration 2000 weight ppb (2000 weight ppm with respect to potassium chloride)
[7] = addition concentration 100 ppb (12.5 weight ppm with respect to potassium chloride)
[8] = addition concentration 100 weight ppb (50 weight ppm with respect to potassium chloride)
[9] = addition concentration 10 ppb (1.25 weight ppm with respect to potassium chloride)
[10] = addition concentration 1 ppm (125 weight ppm with respect to potassium chloride)

| Compound | off-taste suppressing effect [1, 5] | off-taste suppressing effect [1, 6] | intensity of off-tastes (bitter taste, metallic taste, harsh taste, astringent taste) derived from potassium chloride [1] | off-taste suppressing effect [4, 8] | intensity of off-tastes (bitter taste, metallic taste, harsh taste, astringent taste) derived from potassium chloride [4] | off-taste suppressing effect [2, 9] | off-taste suppressing effect [3, 9] | also measured |
| --- | --- | --- | --- | --- | --- | --- | --- | --- |
| CC(=O)c1ccc(C)o1 [2-acetyl-5-methylfuran] | + (intensity of the same level as potassium chloride aqueous solution with potassium chloride concentration of not less than 0.05 wt % and less than 0.1 wt %) | ++ (intensity of the same level as potassium chloride aqueous solution with potassium chloride concentration of less than 0.05 wt %) | decreased |  |  |  |  |  |
| CC(=O)c1ccco1 [2-acetylfuran] |  |  |  | ++ (intensity of the same level as potassium chloride aqueous solution with potassium chloride concentration of not less than 0.1 wt % and less than 0.15 wt %) | decreased |  |  | off-taste suppressing effect [2, 7]: ++ (intensity of the same level as potassium chloride aqueous solution with potassium chloride concentration of not less than 0.7 wt % and less than 0.75 wt %); off-taste suppressing effect [3, 7]: ++ (intensity of the same level as potassium chloride aqueous solution with potassium chloride concentration of not less than 0.7 wt % and less than 0.75 wt %) |
| CC1OCCC1=O (stereo not drawn) [2-methyltetrahydrofuran-3-one] |  |  |  | + (intensity of the same level as potassium chloride aqueous solution with potassium chloride concentration of not less than 0.15 wt % and less than 0.2 wt %) | decreased |  |  |  |
| CC1=C(O)C(=O)CC1 [cyclotene] |  |  |  |  | decreased | +++ (intensity of the same level as potassium chloride aqueous solution with potassium chloride concentration of not less than 0.65 wt % and less than 0.7 wt %) | +++ (intensity of the same level as potassium chloride aqueous solution with potassium chloride concentration of not less than 0.65 wt % and less than 0.7 wt %) | off-taste suppressing effect ([4]; addition concentration 25 weight ppb (12.5 weight ppm with respect to potassium chloride)): +++ (intensity of the same level as potassium chloride aqueous solution with potassium chloride concentration of less than 0.1 wt %) |
| O=Cc1ccco1 [furfural, Furfural] |  |  |  |  | decreased | +++ (intensity of the same level as potassium chloride aqueous solution with potassium chloride concentration of not less than 0.65 wt % and less than 0.7 wt %) | ++ (intensity of the same level as potassium chloride aqueous solution with potassium chloride concentration of not less than 0.7 wt % and less than 0.75 wt %) | off-taste suppressing effect ([4]; addition concentration 50 weight ppb (25 weight ppm with respect to potassium chloride)): +++ (intensity of the same level as potassium chloride aqueous solution with potassium chloride concentration of less than 0.1 wt %) |
| CCC(=O)O [propionic acid] | + (intensity of the same level as potassium chloride aqueous solution with potassium chloride concentration of not less than 0.05 wt % and less than 0.1 wt %) | ++ (intensity of the same level as potassium chloride aqueous solution with potassium chloride concentration of less than 0.05 wt %) | decreased |  | decreased |  |  | off-taste suppressing effect [2, 10]: +++ (intensity of the same level as potassium chloride aqueous solution with potassium chloride concentration of not less than 0.65 wt % and less than 0.7 wt %); off-taste suppressing effect [3, 10]: ++ (intensity of the same level as potassium chloride aqueous solution with potassium chloride concentration of not less than 0.7 wt % and less than 0.75 wt %); off-taste suppressing effect ([4]; addition concentration 1000 weight ppb (500 weight ppm with respect to potassium chloride)): ++ (intensity of the same level as potassium chloride aqueous solution with potassium chloride concentration of not less than 0.1 wt % and less than 0.15 wt %) |

From patent US20220279826A1, “OFF-FLAVOR SUPPRESSING AGENT” (AJINOMOTO CO., INC., priority 2019, published 2022)
